Publication PMC6812009, “Covalent Aurora A regulation by the metabolic integrator coenzyme A” (Redox Biology, 2019)

Key:
Test in all cases: Kinase profiling screen (radioactive filter-binding assay)
Assay type in all cases: biochemical
EPH-A2 = EPH-A2 (Homo sapiens, UniProt P29317); conditions: 100 μM compound, 50 μM ATP; read-out: Kinase activity, % of activity in the absence of inhibitor
Method in brief: (§1)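 Across 117 protein kinases, duplicate in vitro measurements were made with CoA, dpCoA and ADP present at 100 μM final. Each reaction used recombinant kinase, a model substrate and an optimal concentration of ATP.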

PLK1 = PLK1 (Homo sapiens, UniProt P53350); conditions: 100 μM compound, 5 μM ATP; read-out: Kinase activity, % of activity in the absence of inhibitor
PLK1, sequence (P53350 whole entry): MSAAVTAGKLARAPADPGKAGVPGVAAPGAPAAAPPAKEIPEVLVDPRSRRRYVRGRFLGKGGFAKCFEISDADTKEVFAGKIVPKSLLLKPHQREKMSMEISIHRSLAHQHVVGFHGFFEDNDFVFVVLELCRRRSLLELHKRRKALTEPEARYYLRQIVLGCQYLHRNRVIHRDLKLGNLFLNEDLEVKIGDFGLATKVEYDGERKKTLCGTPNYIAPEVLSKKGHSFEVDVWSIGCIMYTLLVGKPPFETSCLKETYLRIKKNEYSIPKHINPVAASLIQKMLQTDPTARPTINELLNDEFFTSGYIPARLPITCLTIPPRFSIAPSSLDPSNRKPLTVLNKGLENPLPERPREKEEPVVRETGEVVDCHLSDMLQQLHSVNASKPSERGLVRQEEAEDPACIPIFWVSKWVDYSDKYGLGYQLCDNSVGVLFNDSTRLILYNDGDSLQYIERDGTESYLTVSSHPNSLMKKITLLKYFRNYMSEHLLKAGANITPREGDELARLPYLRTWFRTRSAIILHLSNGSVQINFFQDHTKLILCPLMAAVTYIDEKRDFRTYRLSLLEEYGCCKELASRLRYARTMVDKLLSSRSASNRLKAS
Method in brief: as §1

Aurora B = Aurora B (Homo sapiens, UniProt Q96GD4); conditions: for activity at 100 µM: 100 μM compound, 20 μM ATP, read-out: Kinase activity, % of activity in the absence of inhibitor
Aurora B, sequence (Q96GD4 whole entry): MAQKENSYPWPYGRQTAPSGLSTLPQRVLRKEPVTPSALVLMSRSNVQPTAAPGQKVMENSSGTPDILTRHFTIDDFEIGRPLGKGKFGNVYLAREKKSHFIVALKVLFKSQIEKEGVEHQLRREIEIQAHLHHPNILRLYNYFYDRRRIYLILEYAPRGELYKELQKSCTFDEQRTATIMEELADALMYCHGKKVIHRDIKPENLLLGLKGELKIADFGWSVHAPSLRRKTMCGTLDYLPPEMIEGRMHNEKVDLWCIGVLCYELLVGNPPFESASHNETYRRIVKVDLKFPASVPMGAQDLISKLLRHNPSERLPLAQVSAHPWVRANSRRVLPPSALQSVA
Method in brief: as §1

MARK1 = MARK1 (Homo sapiens, UniProt Q9P0L2); conditions: 100 μM compound, 20 μM ATP; read-out: Kinase activity, % of activity in the absence of inhibitor
MARK1, sequence (Q9P0L2 whole entry): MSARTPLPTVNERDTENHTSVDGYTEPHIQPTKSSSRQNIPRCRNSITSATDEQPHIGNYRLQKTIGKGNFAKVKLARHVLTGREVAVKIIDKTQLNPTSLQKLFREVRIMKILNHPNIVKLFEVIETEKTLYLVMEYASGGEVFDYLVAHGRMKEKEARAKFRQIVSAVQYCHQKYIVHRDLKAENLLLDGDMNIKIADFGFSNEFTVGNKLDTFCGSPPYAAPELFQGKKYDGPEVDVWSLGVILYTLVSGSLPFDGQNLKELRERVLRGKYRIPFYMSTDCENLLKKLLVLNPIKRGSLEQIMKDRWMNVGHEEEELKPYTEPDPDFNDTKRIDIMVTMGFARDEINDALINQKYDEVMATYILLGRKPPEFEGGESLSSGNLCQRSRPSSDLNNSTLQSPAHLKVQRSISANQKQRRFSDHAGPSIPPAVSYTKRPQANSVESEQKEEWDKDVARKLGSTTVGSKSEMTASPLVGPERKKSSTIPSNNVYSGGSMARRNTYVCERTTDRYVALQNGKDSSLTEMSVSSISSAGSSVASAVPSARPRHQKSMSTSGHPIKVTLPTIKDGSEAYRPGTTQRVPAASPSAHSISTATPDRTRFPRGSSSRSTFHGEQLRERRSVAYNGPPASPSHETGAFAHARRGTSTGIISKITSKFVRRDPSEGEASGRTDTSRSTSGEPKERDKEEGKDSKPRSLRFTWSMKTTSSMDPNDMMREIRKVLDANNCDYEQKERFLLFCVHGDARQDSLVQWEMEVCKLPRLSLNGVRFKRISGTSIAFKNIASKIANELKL
Method in brief: as §1

p38α MAPK = p38α MAPK (Homo sapiens, UniProt Q16539); conditions: 100 μM compound, 50 μM ATP; read-out: Kinase activity, % of activity in the absence of inhibitor
p38α MAPK, sequence (Q16539 whole entry): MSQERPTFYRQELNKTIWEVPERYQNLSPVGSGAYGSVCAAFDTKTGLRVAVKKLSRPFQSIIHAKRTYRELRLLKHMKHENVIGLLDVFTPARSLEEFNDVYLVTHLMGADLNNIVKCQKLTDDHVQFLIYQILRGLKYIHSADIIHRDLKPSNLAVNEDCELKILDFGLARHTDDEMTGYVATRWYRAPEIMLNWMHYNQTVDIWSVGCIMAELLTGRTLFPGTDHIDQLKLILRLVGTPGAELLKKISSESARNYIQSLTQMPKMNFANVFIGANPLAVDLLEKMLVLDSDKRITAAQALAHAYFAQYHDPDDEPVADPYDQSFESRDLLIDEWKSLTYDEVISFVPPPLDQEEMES
Method in brief: as §1

BRK = BRK (Homo sapiens, UniProt Q13882); conditions: 100 μM compound, 20 μM ATP; read-out: Kinase activity, % of activity in the absence of inhibitor
Method in brief: as §1

PRK2 = PRK2 (Homo sapiens, UniProt Q16513); conditions: 100 μM compound, 5 μM ATP; read-out: Kinase activity, % of activity in the absence of inhibitor
PRK2, sequence (Q16513 whole entry): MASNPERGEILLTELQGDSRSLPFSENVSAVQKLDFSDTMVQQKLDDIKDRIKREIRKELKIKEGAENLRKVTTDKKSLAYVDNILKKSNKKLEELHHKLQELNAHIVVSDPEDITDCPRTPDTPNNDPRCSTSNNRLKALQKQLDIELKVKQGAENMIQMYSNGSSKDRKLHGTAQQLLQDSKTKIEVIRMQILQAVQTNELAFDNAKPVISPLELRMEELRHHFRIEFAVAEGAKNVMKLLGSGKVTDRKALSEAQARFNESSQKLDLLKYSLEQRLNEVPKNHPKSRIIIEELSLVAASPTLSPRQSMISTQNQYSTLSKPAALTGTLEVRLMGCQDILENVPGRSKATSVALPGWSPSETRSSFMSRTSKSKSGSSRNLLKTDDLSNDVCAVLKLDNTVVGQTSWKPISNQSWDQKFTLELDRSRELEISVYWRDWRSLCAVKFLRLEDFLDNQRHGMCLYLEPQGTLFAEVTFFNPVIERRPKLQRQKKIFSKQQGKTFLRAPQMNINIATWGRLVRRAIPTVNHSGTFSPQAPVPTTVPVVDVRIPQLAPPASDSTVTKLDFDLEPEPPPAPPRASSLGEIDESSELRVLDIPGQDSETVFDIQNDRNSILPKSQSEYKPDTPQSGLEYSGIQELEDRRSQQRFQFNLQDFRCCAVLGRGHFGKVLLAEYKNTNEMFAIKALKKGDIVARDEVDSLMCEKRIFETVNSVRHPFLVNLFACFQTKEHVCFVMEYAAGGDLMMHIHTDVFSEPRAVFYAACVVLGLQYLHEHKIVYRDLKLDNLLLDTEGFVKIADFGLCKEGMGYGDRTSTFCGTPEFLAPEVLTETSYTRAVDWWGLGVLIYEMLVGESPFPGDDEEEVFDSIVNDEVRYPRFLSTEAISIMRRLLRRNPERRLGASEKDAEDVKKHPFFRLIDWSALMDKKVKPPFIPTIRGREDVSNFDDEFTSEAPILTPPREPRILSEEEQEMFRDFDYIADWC
Method in brief: as §1

MAPKAP-K2 = MAPKAP-K2 (Homo sapiens, UniProt P49137); conditions: 100 μM compound, 20 μM ATP; read-out: Kinase activity, % of activity in the absence of inhibitor
MAPKAP-K2, sequence (P49137 whole entry): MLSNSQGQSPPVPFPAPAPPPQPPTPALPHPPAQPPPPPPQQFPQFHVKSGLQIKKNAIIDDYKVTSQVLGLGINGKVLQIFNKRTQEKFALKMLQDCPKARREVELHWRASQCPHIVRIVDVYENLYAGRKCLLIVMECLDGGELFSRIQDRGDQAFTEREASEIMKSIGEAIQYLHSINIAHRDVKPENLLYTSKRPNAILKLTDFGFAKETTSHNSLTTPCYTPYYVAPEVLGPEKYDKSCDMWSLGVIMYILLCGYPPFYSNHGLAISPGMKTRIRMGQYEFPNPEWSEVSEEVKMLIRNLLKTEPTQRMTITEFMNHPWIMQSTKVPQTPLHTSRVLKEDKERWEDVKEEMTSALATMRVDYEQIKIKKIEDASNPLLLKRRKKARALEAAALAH
Method in brief: as §1

NEK6 = NEK6 (Homo sapiens, UniProt Q9HC98); conditions: 100 μM compound, 50 μM ATP; read-out: Kinase activity, % of activity in the absence of inhibitor
Method in brief: as §1

CK1δ = CK1δ (Homo sapiens, UniProt P48730); conditions: 100 μM compound, 20 μM ATP; read-out: Kinase activity, % of activity in the absence of inhibitor
CK1δ, sequence (P48730 whole entry): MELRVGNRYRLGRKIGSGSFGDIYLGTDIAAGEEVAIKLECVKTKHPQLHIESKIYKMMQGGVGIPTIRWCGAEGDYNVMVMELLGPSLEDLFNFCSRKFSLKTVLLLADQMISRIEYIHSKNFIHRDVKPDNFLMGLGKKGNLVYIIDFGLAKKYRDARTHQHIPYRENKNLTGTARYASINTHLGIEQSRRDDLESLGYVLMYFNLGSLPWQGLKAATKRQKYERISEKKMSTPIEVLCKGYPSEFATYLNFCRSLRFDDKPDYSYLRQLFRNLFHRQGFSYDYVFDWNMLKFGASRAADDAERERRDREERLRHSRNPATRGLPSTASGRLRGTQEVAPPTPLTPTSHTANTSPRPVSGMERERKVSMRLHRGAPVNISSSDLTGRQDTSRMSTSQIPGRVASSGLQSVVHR
Method in brief: as §1

EPH-B3 = biological target: T1, EPH-B3 (Homo sapiens, UniProt P54753); conditions: 100 μM compound, 20 μM ATP; read-out: Kinase activity, % of activity in the absence of inhibitor
T1 sequence (P54753 34-998): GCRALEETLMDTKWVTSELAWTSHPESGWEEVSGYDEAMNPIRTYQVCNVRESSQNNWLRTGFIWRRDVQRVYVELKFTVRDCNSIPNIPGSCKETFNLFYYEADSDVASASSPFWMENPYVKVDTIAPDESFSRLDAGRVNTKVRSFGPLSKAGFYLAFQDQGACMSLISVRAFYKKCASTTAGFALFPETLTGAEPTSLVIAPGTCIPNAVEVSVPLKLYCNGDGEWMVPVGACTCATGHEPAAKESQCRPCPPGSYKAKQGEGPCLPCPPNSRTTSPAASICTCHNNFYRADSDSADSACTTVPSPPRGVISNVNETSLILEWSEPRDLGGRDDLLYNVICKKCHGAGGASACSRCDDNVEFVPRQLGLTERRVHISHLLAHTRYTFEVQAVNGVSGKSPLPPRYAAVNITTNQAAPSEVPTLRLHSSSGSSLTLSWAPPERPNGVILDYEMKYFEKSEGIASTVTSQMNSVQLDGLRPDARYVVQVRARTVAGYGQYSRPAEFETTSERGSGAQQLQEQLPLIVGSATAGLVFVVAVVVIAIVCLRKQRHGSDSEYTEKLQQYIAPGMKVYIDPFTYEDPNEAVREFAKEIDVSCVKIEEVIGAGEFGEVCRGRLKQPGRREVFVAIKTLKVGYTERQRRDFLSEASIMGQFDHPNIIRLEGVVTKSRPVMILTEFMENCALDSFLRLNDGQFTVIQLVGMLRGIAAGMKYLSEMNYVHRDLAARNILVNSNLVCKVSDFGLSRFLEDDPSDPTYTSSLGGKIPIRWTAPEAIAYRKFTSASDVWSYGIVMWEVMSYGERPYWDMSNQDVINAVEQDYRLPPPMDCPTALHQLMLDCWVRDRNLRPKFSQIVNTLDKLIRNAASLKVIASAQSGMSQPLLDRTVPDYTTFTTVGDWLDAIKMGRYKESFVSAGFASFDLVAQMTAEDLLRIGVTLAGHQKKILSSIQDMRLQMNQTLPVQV
Method in brief: as §1

MLK1 = MLK1 (Homo sapiens, UniProt P80192); conditions: 100 μM compound, 20 μM ATP; read-out: Kinase activity, % of activity in the absence of inhibitor
Method in brief: as §1

DYRK1A = DYRK1A (Homo sapiens, UniProt Q13627); conditions: 100 μM compound, 50 μM ATP; read-out: Kinase activity, % of activity in the absence of inhibitor
Method in brief: as §1

ZAP70 = biological target: T2, ZAP70 (Homo sapiens, UniProt P43403); conditions: 100 μM compound, 5 μM ATP; read-out: Kinase activity, % of activity in the absence of inhibitor
T2 sequence (P43403 1-619): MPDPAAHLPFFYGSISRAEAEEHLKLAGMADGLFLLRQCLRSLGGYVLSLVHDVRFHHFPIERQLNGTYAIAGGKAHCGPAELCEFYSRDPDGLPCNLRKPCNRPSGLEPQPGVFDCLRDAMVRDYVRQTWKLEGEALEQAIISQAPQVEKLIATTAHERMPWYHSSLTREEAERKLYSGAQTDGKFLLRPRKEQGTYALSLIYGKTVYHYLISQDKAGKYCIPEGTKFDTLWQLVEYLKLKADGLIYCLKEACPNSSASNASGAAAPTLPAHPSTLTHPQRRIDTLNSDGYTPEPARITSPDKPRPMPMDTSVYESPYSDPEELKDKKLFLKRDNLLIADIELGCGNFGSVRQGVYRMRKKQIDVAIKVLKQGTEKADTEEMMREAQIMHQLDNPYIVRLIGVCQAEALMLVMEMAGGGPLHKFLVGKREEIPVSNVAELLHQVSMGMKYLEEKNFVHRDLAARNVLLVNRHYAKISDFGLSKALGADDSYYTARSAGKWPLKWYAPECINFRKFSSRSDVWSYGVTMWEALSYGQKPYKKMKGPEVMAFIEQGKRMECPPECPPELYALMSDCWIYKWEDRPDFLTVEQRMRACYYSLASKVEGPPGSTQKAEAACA
Method in brief: as §1

JNK3 = JNK3 (Homo sapiens, UniProt P53779); conditions: 100 μM compound, 20 μM ATP; read-out: Kinase activity, % of activity in the absence of inhibitor
JNK3, sequence (P53779 whole entry): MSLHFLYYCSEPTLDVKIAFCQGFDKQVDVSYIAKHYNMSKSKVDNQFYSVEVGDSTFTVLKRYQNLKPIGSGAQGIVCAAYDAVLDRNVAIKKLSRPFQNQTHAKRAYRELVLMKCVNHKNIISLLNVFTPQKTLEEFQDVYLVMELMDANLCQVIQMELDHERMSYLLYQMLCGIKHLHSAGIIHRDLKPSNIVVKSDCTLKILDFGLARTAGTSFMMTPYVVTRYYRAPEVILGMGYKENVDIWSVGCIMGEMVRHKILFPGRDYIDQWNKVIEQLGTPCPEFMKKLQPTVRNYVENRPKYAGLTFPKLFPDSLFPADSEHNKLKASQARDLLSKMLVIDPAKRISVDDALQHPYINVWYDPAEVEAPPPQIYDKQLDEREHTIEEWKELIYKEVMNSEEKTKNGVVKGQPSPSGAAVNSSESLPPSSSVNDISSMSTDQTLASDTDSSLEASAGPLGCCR
Method in brief: as §1

MKK1 = MKK1 (Homo sapiens, UniProt Q02750); conditions: 100 μM compound, 5 μM ATP; read-out: Kinase activity, % of activity in the absence of inhibitor
MKK1, sequence (Q02750 whole entry): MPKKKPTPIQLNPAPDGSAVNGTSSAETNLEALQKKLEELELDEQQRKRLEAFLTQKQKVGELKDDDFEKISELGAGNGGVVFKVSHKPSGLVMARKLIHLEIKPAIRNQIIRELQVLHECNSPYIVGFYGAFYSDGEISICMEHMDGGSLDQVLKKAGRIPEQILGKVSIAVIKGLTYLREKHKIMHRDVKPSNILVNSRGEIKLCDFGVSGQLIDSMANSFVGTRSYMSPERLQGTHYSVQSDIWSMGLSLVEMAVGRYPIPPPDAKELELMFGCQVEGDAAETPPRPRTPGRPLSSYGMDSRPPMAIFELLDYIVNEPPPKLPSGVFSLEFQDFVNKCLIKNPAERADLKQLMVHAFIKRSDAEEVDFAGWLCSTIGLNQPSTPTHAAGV
Method in brief: as §1

CC(C)(COP(=O)(O)OP(=O)(O)OC[C@H]1O[C@@H](n2cnc3c(N)ncnc32)[C@H](O)[C@@H]1OP(=O)(O)O)[C@@H](O)C(=O)NCCC(=O)NCCS [CoA, Coenzyme A]
activity at 100 µM (EPH-A2): 102% | activity at 100 µM (PLK1): 101% | activity at 100 µM (Aurora B): 54.3% | inhibition at 100 µM (Aurora B; at 100 μM compound): 46% | activity at 100 µM (MARK1): 95.3% | activity at 100 µM (p38α MAPK): 112% | activity at 100 µM (BRK): 114% | activity at 100 µM (PRK2): 71.3% | activity at 100 µM (MAPKAP-K2): 93.1% | activity at 100 µM (NEK6): 118% | activity at 100 µM (CK1δ): 80.8% | activity at 100 µM (EPH-B3): 104% | activity at 100 µM (MLK1): 110% | activity at 100 µM (DYRK1A): 93.1% | activity at 100 µM (ZAP70): 89.7% | activity at 100 µM (JNK3): 101% | activity at 100 µM (MKK1): 107%

CC(C)(COP(=O)(O)OP(=O)(O)OCC1OC(n2cnc3c(N)ncnc32)C(O)C1O)C(O)C(=O)NCCC(=O)NCCS (stereo not shown) [dpCoA, dephospho-CoA]
activity at 100 µM (EPH-A2): 99.2% | activity at 100 µM (PLK1): 100% | activity at 100 µM (Aurora B): 55.1% | activity at 100 µM (MARK1): 68% | activity at 100 µM (p38α MAPK): 87.7% | activity at 100 µM (BRK): 83.1% | activity at 100 µM (PRK2): 67.5% | activity at 100 µM (MAPKAP-K2): 81.7% | activity at 100 µM (NEK6): 69.6% | activity at 100 µM (CK1δ): 80.4% | activity at 100 µM (EPH-B3): 94.4% | activity at 100 µM (MLK1): 76% | activity at 100 µM (DYRK1A): 90.2% | activity at 100 µM (ZAP70): 79.8% | activity at 100 µM (JNK3): 63.2% | activity at 100 µM (MKK1): 52.3%

Nc1ncnc2c1ncn2C1OC(COP(=O)(O)OP(=O)(O)O)C(O)C1O (stereo not shown) [ADP]
activity at 100 µM (EPH-A2): 45% | activity at 100 µM (PLK1): 52.2% | activity at 100 µM (Aurora B): 47.8% | activity at 100 µM (MARK1): 28.1% | activity at 100 µM (p38α MAPK): 60.3% | activity at 100 µM (BRK): 41.3% | activity at 100 µM (PRK2): 20.8% | activity at 100 µM (MAPKAP-K2): 53% | activity at 100 µM (NEK6): 26.6% | activity at 100 µM (CK1δ): 57.6% | activity at 100 µM (EPH-B3): 18% | activity at 100 µM (MLK1): 41.4% | activity at 100 µM (DYRK1A): 75.9% | activity at 100 µM (ZAP70): 13.2% | activity at 100 µM (JNK3): 58.6% | activity at 100 µM (MKK1): 16.4%
